Data from patent publication US20250262299A1, “DOSING FOR TREATMENT WITH ANTI-FCRH5/ANTI-CD3 BISPECIFIC ANTIBODIES” (Genentech, Inc., priority 2022, published 2025).

Experiments:
[1] = test system: MM; conditions: lenalidomide maintenance, active vs. control; cited from earlier work
[2] = Compatibility testing in extension sets; assay type: physicochemical; conditions: IV infusion extension sets
Source text: Cevostamab will be administered as a fixed dose independent of body weight. Cevostamab will be administered to patients by IV infusion using standard IV bags where applicable. […] The drug product will be delivered by IV bag infusion, with a final cevostamab volume determined by the dose.

[3] = test system: human MM cell lines and primary human MM plasma cells; conditions: cells with a wide range of FcRH5 expression levels, including minimal expression; cited from earlier work
[4] = test system: Fc (Fcγ) receptors; conditions: N297G non-glycosylated antibody; cited from earlier work
[5] = test system: R/R MM; assay: Study GO39775 / cevostamab monotherapy clinical studies in patients with R/R MM; assay type: in vivo, human
Source text: As of November 2021, two studies are ongoing to confirm the safety and efficacy of cevostamab in this patient population. As such, combination with lenalidomide is expected to deepen and prolong response in patients in remission on the following basis: • FcRH5 is a cell-surface antigen whose expression is restricted to cells of the B linage, including plasma cells. […] Rationale for Cevostamab Dose
The dosing schedule has been modified from a 21-day cycle to a 28-day cycle to accommodate lenalidomide dosing and to ease patient treatment burden. […] A lower target dose of 90 mg Q2W will be the starting point of dose escalation towards 132 mg. These doses have been selected based on the full body of evidence available across cevostamab studies, considering PD, PK, safety, and efficacy data.

[6] = Study GO39775, 0.3/3.6/160 mg, patients with R/R MM
[7] = Study GO39775, preliminary findings
[8] = cevostamab monotherapy, patients with R/R MM

Compound	overall survival (OS) [1]	progression-free survival (PFS) [1]	stability in extension sets [2]	cell killing [3]	binding to Fc (Fcγ) receptors [4]	safety of target dose ([5]; Study GO39775, 160 mg every three weeks (Q3W))	induction of response with double step-up dosing [5, 6]	safety of double step-up dosing [5, 6]	clinical response in patients with the lowest FcRH5 expression [5, 7]	objective response in relation to baseline FcRH5 expression [5, 7]	efficacy [5, 8]	safety profile [5, 8]
Nc1cccc2c1CN(C1CCC(=O)NC1=O)C2=O (stereo not drawn) [lenalidomide]	statistically significant increase	statistically significant increase	–	–	–	–	–	–	–	–	–	–
cevostamab: Fc-engineered, humanized, full-length non-glycosylated IgG1 kappa T-cell-dependent bispecific antibody (TDB) that binds FcRH5 and CD3	–	–	stable in extension sets	broadly active in cell killing	minimal binding	found to be safe	effective at inducing a response	safe	Clinical response has been observed	able to achieve an objective response to cevostamab treatment regardless of baseline FcRH5 expression	shown efficacy	acceptable safety profile
